From DBAASP
≈ marks a conversion by molar mass, not a printed value. Where “and” joins values, the source holds several entries; their conditions need not be identical. Equal values may be shown once.

Legend:
Test in all cases: ≥ marks a high value that may be exact or a test limit, other limits are often not marked, values filed in µg/mL are converted to µM
[1] = system: Escherichia coli ATCC 25922
Escherichia coli K99 = system: Escherichia coli K99
Escherichia coli K88 = system: Escherichia coli K88
[2] = system: Salmonella enterica subsp. enterica serovar Typhimurium ATCC 14028
[3] = system: Pseudomonas aeruginosa ATCC 27853
[4] = system: Lacticaseibacillus rhamnosus 1.0385
[5] = system: Salmonella enterica subsp. enterica serovar Typhimurium C77-31
[6] = system: Staphylococcus aureus ATCC 43300
[7] = system: Lactiplantibacillus plantarum 8014
[8] = system: Salmonella enterica subsp. enterica serovar Pullorum C79-13
[9] = system: Lacticaseibacillus rhamnosus 1.0936
[10] = system: Lacticaseibacillus rhamnosus 7469
[11] = system: Lacticaseibacillus rhamnosus 1.0911
Escherichia coli UB1005 = system: Escherichia coli UB1005
Listeria grayi DSM 20601 = system: Listeria grayi DSM 20601
[12] = system: Micrococcus luteus DSM 20030
Escherichia coli D31 = system: Escherichia coli D31
[13] = system: Listeria fleischmannii DSM 24998
[14] = system: Listeria monocytogenes DSM 20600
Escherichia coli = system: Escherichia coli
[15] = system: Enterococcus faecalis ATCC 29212
[16] = system: Staphylococcus aureus ATCC 25923
[17] = system: Klebsiella pneumoniae ATCC 13883
[18] = system: Streptococcus pyogenes ATCC 19615
Bacillus subtilis = system: Bacillus subtilis

NC(=O)[C@H](CCCN=C(N)N)NC(=O)[C@H](CCCN=C(N)N)NC(=O)[C@H](Cc1c[nH]c2ccccc12)NC(=O)[C@H](Cc1c[nH]c2ccccc12)NC(=O)[C@H](Cc1c[nH]c2ccccc12)NC(=O)[C@@H](N)CCCN=C(N)N [RWWWRR]
MIC [1]: 23.9 µM and 32 µM | MIC (Escherichia coli K99): ≥ 32 µM | MIC (Escherichia coli K88): ≥ 32 µM | MIC [2]: > 64 µM | MIC [3]: > 64 µM | MIC [4]: ≥ 64 µM | MIC [5]: ≥ 64 µM | MIC [6]: 8 µM (≈ 8.35 µg/mL) | MIC [7]: ≥ 64 µM | MIC [8]: ≥ 64 µM | MIC [9]: ≥ 64 µM | MIC [10]: ≥ 64 µM | MIC [11]: ≥ 64 µM | MIC (Escherichia coli UB1005): ≥ 32 µM

CC[C@H](C)[C@H](NC(=O)[C@H](C)NC(=O)[C@H](CC(N)=O)NC(=O)[C@H](CCCCN)NC(=O)[C@@H](NC(=O)CNC(=O)[C@H](CCC(=O)O)NC(=O)[C@H](Cc1c[nH]c2ccccc12)NC(=O)[C@H](CC(C)C)NC(=O)[C@H](CCCCN)NC(=O)CNC(=O)[C@H](Cc1c[nH]c2ccccc12)NC(=O)[C@H](Cc1ccccc1)NC(=O)CN)C(C)C)C(=O)N[C@@H](CCCCN)C(=O)N[C@@H](CCCCN)C(=O)N[C@@H](CCCCN)C(N)=O [GFWGKLWEGVKNAIKKK]
MIC (Listeria grayi DSM 20601): 1 µM (≈ 1.99 µg/mL) | MIC [12]: 0.25 µM (≈ 0.497 µg/mL) | MIC (Escherichia coli D31): 4 µM (≈ 7.95 µg/mL) | MIC [13]: 1 µM (≈ 1.99 µg/mL) | MIC [14]: 2 µM (≈ 3.98 µg/mL)

CC(C)C[C@H](NC(=O)[C@H](Cc1c[nH]c2ccccc12)NC(=O)[C@H](CCC(N)=O)NC(=O)[C@@H](NC(=O)[C@H](CCC(N)=O)NC(=O)[C@@H]1CCCN1C(=O)[C@H](CCC(=O)O)NC(=O)[C@H](CCCN=C(N)N)NC(=O)[C@@H](N)CCC(N)=O)C(C)C)C(=O)N[C@@H](CCC(=O)O)C(=O)N[C@@H](CCC(N)=O)C(=O)N[C@@H](CCC(N)=O)C(=O)N[C@H](C(=O)N[C@@H](C)C(=O)N[C@@H](CCCCN)C(=O)N[C@@H](CCCN=C(N)N)C(=O)N[C@@H](CCCN=C(N)N)C(=O)N[C@H](C(=O)N[C@@H](CCCCN)C(=O)N[C@@H](CCCN=C(N)N)C(=O)O)[C@@H](C)O)C(C)C [QREPQVQWLEQQVAKRRTKR]
MIC (Escherichia coli): > 100 µM | MIC [15]: > 100 µM | MIC [16]: > 100 µM | MIC [17]: ≥ 100 µM | MIC [2]: > 100 µM | MIC [3]: > 100 µM | MIC [18]: ≥ 100 µM | MIC (Bacillus subtilis): ≥ 100 µM

CC[C@H](C)[C@H](NC(=O)[C@H](C)NC(=O)[C@H](CCCCN)NC(=O)[C@H](CCCCN)NC(=O)[C@@H](NC(=O)[C@@H]1CCCN1C(=O)[C@H](CCCCN)NC(=O)[C@H](Cc1c[nH]c2ccccc12)NC(=O)[C@H](CC(C)C)NC(=O)[C@H](CCCCN)NC(=O)CNC(=O)[C@H](Cc1c[nH]c2ccccc12)NC(=O)[C@H](Cc1ccccc1)NC(=O)CN)C(C)C)C(N)=O [GFWGKLWKPVKKAI]
MIC (Listeria grayi DSM 20601): 8 µM (≈ 13.3 µg/mL) | MIC [12]: 2 µM (≈ 3.31 µg/mL) | MIC [13]: 15 µM (≈ 24.9 µg/mL) | MIC [14]: 30 µM (≈ 49.7 µg/mL)
